Assay results reported in patent US20240300943A1, “NOVEL SALTS OF HETEROCYCLIC COMPOUND AS PROTEIN KINASE INHIBITOR AND USES THEREOF” (HK INNO.N CORPORATION, priority 2021, published 2024).

Key:
[1] = Physical stability evaluation under stress conditions; type: physicochemical
Description: In order to evaluate physical stability, samples were packaged in the form of ((LPDE+N2)+silica gel 1 g+LDPE)+Al-Bag, and stored under stress conditions (60° C.±2° C./80% RH±5%) for 2/4 weeks before evaluation.
In table 2, initial is a result measured after preparation of salts, and S2W and S4W are results measured after two and four weeks while being exposed to stress conditions, respectively.

[2] = system: JAK1, 3; assay: Human whole blood assay, JAK1, 3; type: cell-based; conditions: cytokine-induced STAT phosphorylation
[3] = system: anti-CD3 and anti-CD28-activated PBMC of patients with atopic dermatitis; assay: IL-13, IL-10 and TNF-α secretion in activated PBMC of atopic patients; type: cell-based, human; conditions: 100 nM and 1,000 nM, 24 hours, FIG. 9
Description: 50 μL of DNase I (2000 unit/mL) was added to 50 mL of cell culture medium and mixed. (Since enzyme and cells were used, the medium was heated in a 37° C. water bath before use.) In addition, PMBC of atopic patients was rapidly dissolved in a 37° C. water bath.
PMBC was slowly flowed into the prepared medium, and reacted at 37° C. for five minutes. Centrifugation was performed using a centrifuge at 200 rpm for 15 minutes, after which supernatants were removed, suspended in 1 mL of cell culture medium, and counted.
Cells were diluted in cell culture medium and seeded in a 96-well plate to reach 2×10^5 cells/100 μL/well.
50 μL of PBMC activation medium (0.5 μg/ml CD3 antibody, 5 μg/ml CD28 antibody) was added to every well except the negative control well. (50 μL of cell culture medium was added to each negative control well.)
50 μL of the test material was added to each well according to each concentration. (final concentration of 1 nM, 10 nM, 100 nM, 1,000 nM, 50 μL of cell culture medium was added to each negative control well.)
After incubation in a 5% CO2 incubator at 37° C. for 24 hours, the plates were centrifuged at 200 rpm for 15 minutes as they were, and 150 μL of the suspension was taken, placed in a 96-well round bottom plate, and stored in a deep freezer at minus 80° C.
After the culture supernatant samples were dissolved, ELISA was performed according to the data sheet protocol of ELISA kit.

[4] = molecular target: T1, JAK3 (Homo sapiens, UniProt P52333); assay: ADP-Glo JAK3 kinase assay; type: biochemical; conditions: read-out: IC50, In vitro enzyme JAK3
T1 sequence (P52333 1-1124): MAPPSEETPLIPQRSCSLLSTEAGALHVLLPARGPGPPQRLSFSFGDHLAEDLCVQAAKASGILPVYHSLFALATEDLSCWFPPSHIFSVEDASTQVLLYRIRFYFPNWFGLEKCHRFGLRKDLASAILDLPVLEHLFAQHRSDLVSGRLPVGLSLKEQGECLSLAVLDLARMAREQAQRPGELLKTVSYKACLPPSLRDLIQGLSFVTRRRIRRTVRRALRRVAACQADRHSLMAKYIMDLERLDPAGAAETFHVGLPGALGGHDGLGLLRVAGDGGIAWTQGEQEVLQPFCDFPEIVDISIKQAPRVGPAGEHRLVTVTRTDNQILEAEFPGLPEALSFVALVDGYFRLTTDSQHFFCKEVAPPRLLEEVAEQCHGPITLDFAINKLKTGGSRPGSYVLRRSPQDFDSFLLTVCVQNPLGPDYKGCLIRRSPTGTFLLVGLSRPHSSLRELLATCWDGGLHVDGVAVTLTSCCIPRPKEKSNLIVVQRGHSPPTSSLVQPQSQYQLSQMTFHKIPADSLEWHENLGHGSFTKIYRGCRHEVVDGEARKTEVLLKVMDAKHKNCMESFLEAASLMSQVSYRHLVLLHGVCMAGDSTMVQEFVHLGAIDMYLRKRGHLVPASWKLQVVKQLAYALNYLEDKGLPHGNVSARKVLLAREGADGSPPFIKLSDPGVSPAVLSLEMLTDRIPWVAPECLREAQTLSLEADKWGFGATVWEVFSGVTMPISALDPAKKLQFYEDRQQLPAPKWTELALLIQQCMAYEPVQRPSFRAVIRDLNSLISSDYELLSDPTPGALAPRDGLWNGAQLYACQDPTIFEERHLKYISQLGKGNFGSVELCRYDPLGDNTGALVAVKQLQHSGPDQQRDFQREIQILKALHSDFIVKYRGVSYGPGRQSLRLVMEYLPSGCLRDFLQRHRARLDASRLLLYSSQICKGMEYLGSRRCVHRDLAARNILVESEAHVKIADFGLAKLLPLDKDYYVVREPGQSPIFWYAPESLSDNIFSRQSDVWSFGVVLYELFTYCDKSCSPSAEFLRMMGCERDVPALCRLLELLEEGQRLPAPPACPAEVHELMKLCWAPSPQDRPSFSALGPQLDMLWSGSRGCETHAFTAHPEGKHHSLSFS
Description: 10 mM of Compound 1 was diluted in DMSO to prepare samples at four concentrations (50,000 nM, 5,000 nM, 500 nM and 50 nM). 10 mM of ATP was diluted at 1/40 in 1× kinase buffer to make a preparation. 1 mg/mL of Poly (Glu4, Tyr1) peptide was used as a stock solution. 100 ng/μL of JAK3 enzyme was diluted at 1/20 in 1× kinase buffer to make a preparation. 1 μL of ATP, 1 μL of Poly (Glu4, Tyr1) peptide, and 1 μL of Compound 1 prepared as above were mixed, after which 2 μL of JAK3 enzyme was finally added and reacted at 30° C. for 40 minutes. At this time, a tube without JAK3 enzyme was prepared as a blank and a tube without Compound 1 was prepared as a positive control group together (a final concentration of samples was 10,000 nM, 1,000 nM, 100 nM, and 10 nM).
Then, 5 μL of ADP-glo was added to each tube and reacted at 30° C. for 40 minutes, after which 10 μL of kinase detection reagent was added thereto and reacted at room temperature for 15 minutes. After 18 μL of the reactant was transferred to a 384 well plate, luminescence was measured using a plate reader.

| C.I quantitative ([1]; Initial) [%] | Content (anhydride, as anhydride) ([1]; Initial) [%] | Moisture ([1]; Initial) [%] | Purity: Individual related material ([1]; Initial) [%] | Purity: Total related material ([1]; Initial) [%] | C.I quantitative ([1]; S2W: 2 weeks at 60° C./80% RH) [%] | Content (anhydride, as anhydride) ([1]; S2W: 2 weeks at 60° C./80% RH) [%] | Moisture ([1]; S2W: 2 weeks at 60° C./80% RH) [%] | Purity: Individual related material ([1]; S2W: 2 weeks at 60° C./80% RH) [%] | Purity: Total related material ([1]; S2W: 2 weeks at 60° C./80% RH) [%] | C.I quantitative ([1]; S4W: 4 weeks at 60° C./80% RH) [%] | Content (anhydride, as anhydride) ([1]; S4W: 4 weeks at 60° C./80% RH) [%] | Moisture ([1]; S4W: 4 weeks at 60° C./80% RH) [%] | Purity: Individual related material ([1]; S4W: 4 weeks at 60° C./80% RH) [%] | Purity: Total related material ([1]; S4W: 4 weeks at 60° C./80% RH) [%] | IC50 [2] [nM] | IC50 [4] [nM] | SMILES | IL-10 secretion [3] | IL-13 secretion [3] | TNF-α secretion [3] |
| --- | --- | --- | --- | --- | --- | --- | --- | --- | --- | --- | --- | --- | --- | --- | --- | --- | --- | --- | --- | --- |
| 24.0 | 98.9 | 0.2 | 0.08 | 0.41 | 24.1 | 99.9 | 0.2 | 0.08 | 0.43 | 23.8 | 99.9 | 0.2 | 0.11 | 0.53 |  |  | C[C@@H]1CN(C(=O)CC#N)CC=C1c1cc(NC(=O)C2CC2)nc2[nH]ccc12 [Example 3, (S)—N-(4-(1-(2-cyanoacetyl)-3-methyl-1,2,3,6-tetrahydropyridin-4-yl)-1H-pyrrolo[2,3-b]pyridin-6-yl)cyclopropanecarboxamide] |  |  |  |
|  |  |  |  |  |  |  |  |  |  |  |  |  |  |  | 544 | 315 | C[C@@H]1CN(C(=O)CC#N)CC=C1c1cc(NC(=O)C2CC2)nc2[nH]ccc12 [Compound 1, (S)—N-(4-(1-(2-cyanoacetyl)-3-methyl-1,2,3,6-tetrahydropyridin-4-yl)-1H-pyrrolo[2,3-b]pyridin-6-yl)cyclopropanecarboxamide] | significantly reduced | significantly reduced | significantly reduced |
